Reference: article PMC6423129, “Activity and structural analysis of GRL-117C: a novel small molecule CCR5 inhibitor active against R5-tropic HIV-1s” (Scientific Reports, 2019)

Assays:
Type in all cases: cell-based
[1] = tested on: R5-HIV-1Ba-L; assay: MAGI assay using MAGI/CCR5 cells and R5-HIV-1Ba-L; conditions: Human immunodeficiency virus 1, BAL, Ba-L (MAGI)
Method: (§1) MAGI-CCR5 cells[18] were maintained in DMEM supplemented with 10% fetal calf serum (FCS: Gemini Bio-Products, West Sacramento, CA), 200 μg/ml G418, 100 μg/ml hygromycin B, and 100 μg/ml zeomycin. The Chinese hamster ovary (CHO) cells expressing CCR5[19] were maintained in Ham’s F-12 medium (GIBCO-BRL, Rockville, MD) supplemented with 10% FCS, 50 U/ml penicillin, and 50 μg/ml streptomycin in the presence of 5 μg/ml blasticidin S hydrochloride. TZM-bl cells were obtained from the NIH AIDS Reagent Program, and were cultured in DMEM with 10% FCS. Peripheral blood mononuclear cells (PBMCs) were isolated from buffy coats of HIV-1 seronegative individuals, and were activated with 10 μg/ml phytohemagglutinin (PHA) prior to use[16]. A laboratory wild-type R5-HIV-1 strain (HIV-1Ba-L)[37] was employed for drug susceptibility assays. AD101 (experimental CCR5 inhibitor) and VVC-resistant HIV clones[7],[8] were provided by Dr. John P. Moore of Cornell University for this study. The clones were propagated with activated PBMCs, and were used for the assays. A clinical HIV-1 strain, HIV-1KP-5pc, and an MVC-resistant isolate, HIV-1KP-5mvcR, were prepared and used for antiviral assays, as previously described[10],[38]. The following reagents (plasmids) for T/F HIV-1 viruses[22],[24] were obtained through the NIH AIDS Reagent Program, Division of AIDS, NIAID, NIH: pCH040.c/2625 (cat# 11740), pCH106.c/2633 (cat# 11743), pTHRO.c/2626 (cat# 11745), and pCH058.c/2960 (cat# 11856), from Dr. John Kappes and Dr. Christina Ochsenbauer.
(§2) Antiviral assays using PHA-PBMCs (p24 assay) were conducted as previously reported[16],[38]. In brief, PHA-PBMCs (1 × 10^6/ml) were exposed to 50 TCID50 of HIV-1Ba-L or drug-resistant HIV-1 infectious clones in the presence or absence of various concentrations of drugs; 10-fold serial dilutions were performed in 96-well microculture plates. The amount of p24 antigens produced by the cells was determined on day 7 in the culture via a commercially available ELISA kit (PerkinElmer). The p24 production level in drug-free control cell cultures was used as the reference. […] Antiviral assays using MAGI-CCR5 cells (MAGI assay) were conducted as previously reported[16],[39]. Single-round virus infection assays using TZM-bl cells infected with R5-HIV-1s (HIV-1YU2, HIV-1KP-5pc, and HIV-1KP-5mvcR)[10] were also conducted as previously described.

[2] = tested on: CC1/85 cl.7; assay: Anti-HIV-1 assay, drug-naive clinical strain CC1/85 cl.7; conditions: Human immunodeficiency virus 1
Method: as §1, §2

[3] = tested on: pCH0.6.c/2633; assay: MAGI assay, T/F HIV-1 clone pCH0.6.c/2633; conditions: Human immunodeficiency virus 1, MAGI
Text: (§3) We also examined the activity of GRL-compounds against Transmitter/founder (T/F) HIV-1 viruses. T/F viruses are involved in the initial infection. It is considered that T/F viruses virtually always use CCR5 rather than CXCR4 and infect T cells but not macrophages because […] of CD4 is needed to mediate virus entry for the initial transmission[20]–[24]. […] We obtained four HIV-1 T/F infectious clones. We determined the antiviral activity of GRL-117C, GRL-10007C and GRL-10018C on these HIV-1 clones using MAGI assay.
as §1, with “A clinical HIV-1 strain, HIV-1KP-5pc, and an MVC-resistant isolate, HIV-1KP-5mvcR, were prepared and used for antiviral assays, as previously described[10],[38].” left out
as §2

[4] = tested on: pCH058.c/2960; assay: MAGI assay, T/F HIV-1 clone pCH058.c/2960; conditions: Human immunodeficiency virus 1, MAGI
Text: as §3
as §1, with “A clinical HIV-1 strain, HIV-1KP-5pc, and an MVC-resistant isolate, HIV-1KP-5mvcR, were prepared and used for antiviral assays, as previously described[10],[38].” left out
as §2

[5] = tested on: HIV-1YU2; assay: TZM-bl single-round infection assay, HIV-1YU2; conditions: Human immunodeficiency virus 1, YU2, drug-sensitive, mean ± SD
Method: as §1, §2

[6] = tested on: HIV-1KP-5pc; assay: TZM-bl single-round infection assay, HIV-1KP-5pc; conditions: Human immunodeficiency virus 1, TZM-bl
Method: as §1, §2

SMILES: C=CCN(C(=O)OCc1ccc([N+](=O)[O-])cc1)C1CC2CCC(C1)N2CCC(C)(CN(C)S(=O)(=O)c1ccccc1)c1ccccc1 (stereo not shown) [GRL-117C]
- IC50 [1]: 0.6 nM
- IC90 [1]: 8.9 nM
- IC50 [2]: 3.5 nM
- IC90 [2]: 28.9 nM
- IC50 [3]: 1.9 ± 0.3 nM
- IC50 [4]: 3.2 ± 1 nM
- IC50 [5]: 68 ± 8.8 nM
- IC90 [5]: > 100 nM
- IC90 [6]: 767 nM
- IC50 ([6]; KP-5pc, drug-sensitive clinical strain, TZM-bl assay, mean ± SD): 160 ± 30 nM
